{
  "source": "patent US8895579B2",
  "about": "“Heterotricyclic AMPA receptor antagonists for treatment of epilepsy, pain, and other neurological disorders and diseases” (Northwestern University, priority 2010, dated 2014)",
  "key": {"[1]": {"test_system": "primary hippocampal neurons", "experiment": "Spontaneous action potential firing, current clamp, cultured hippocampal neurons", "type": "cell-based", "details": "20 μM", "experimental": "Experiments involving primary hippocampal neurons were carried out as described previously (Vivithanaporn et al., 2007). Dissociated neurons were cultured from E18 prenatal hippocampi and were used for analysis from between 17 and 28 days in vitro. The extracellular solution was the same as used for recombinant receptor analysis, while the internal solution for voltage clamp recordings contained (in mM) 95 CsF, 25 CsCl, 10 Cs-HEPES, 10 EGTA, 2 NaCl, 2 Mg-ATP, 10 QX-314, 5 TEA. and 5 4-AP (pH 7.3) and the internal solution for current clamp recordings contained (in mM) 120 KMeSO4, 5 KCl, 5 NaCl, 1 MgCl2, 11 Na-HEPES, 10 phosphocreatine, 4 Na-ATP, and 0.3 Na-GTP (pH 7.0). Borosilicate patch electrodes were pulled and fire polished to 3-5 MΩ resistance. Both whole cell current clamp and voltage clamp recordings were performed using an Axopatch 200B amplifier (MDS, Sunnyvale, Calif.) and filtered at 20 kHz. Gigaohm seals were established in voltage clamp mode and, after membrane rupture, the recordings were carried out either in voltage clamp (clamped at Vm=−70 mV) with a […] series resistance, which was compensated to ˜60%, or in current clamp mode ([…]) with the bridge balance was corrected and pipette resistance neutralized. In vitro status epilepticus (SE) was induced as described previously (Deshpande et al., 2007; Pal et al., 1999) and action potentials were recorded in current clamp mode. Briefly for in vitro SE, magnesium-containing external solution was exchanged for external solution without magnesium and supplemented with 2 μM glycine. This solution exchange produced a period of rapid depolarization and increased AP firing, followed by a period of channel inactivation and reduced AP firing. After channel inactivation, neurons characteristically would hyperpolarize to hold at a membrane voltage (Vm) which was depolarized relative to control Vm, with an increase in AP firing frequency. […] External solutions were bath-applied at a flow rate of 1.5-2 ml/minute. After recording a basal control period, IKM compounds were applied for five minutes (10 minutes for in vitro SE experiments) and changes in excitatory post-synaptic current (EPSC) charge transfer or action potential (AP) frequency were analyzed during the last two minutes of IKM application.\nEffects of IKM-159 on neuronal excitability. […] To determine if altered neuronal excitability could contribute to this behavioral phenotype, we examined the effect of IKM-86 and IKM-159 on action potential firing in cultured hippocampal neurons. Spontaneous action potentials were recorded in current-clamp mode before, during and after application of 20 μM IKM-86 and IKM-159. […]"}, "[2]": {"target": "T1, kainate receptor EPSCs, CA3 pyramidal neurons (Mus musculus, UniProt P39087+Q61626+Q8BMF5)", "T1 construct": "whole-cell voltage clamp recording from mouse acute brain slices; from tissue; host or cells: acute hippocampal slices, P15-21 C57Bl/6 mice, CA3 pyramidal neurons", "T1 sequence (P39087 32-908)": "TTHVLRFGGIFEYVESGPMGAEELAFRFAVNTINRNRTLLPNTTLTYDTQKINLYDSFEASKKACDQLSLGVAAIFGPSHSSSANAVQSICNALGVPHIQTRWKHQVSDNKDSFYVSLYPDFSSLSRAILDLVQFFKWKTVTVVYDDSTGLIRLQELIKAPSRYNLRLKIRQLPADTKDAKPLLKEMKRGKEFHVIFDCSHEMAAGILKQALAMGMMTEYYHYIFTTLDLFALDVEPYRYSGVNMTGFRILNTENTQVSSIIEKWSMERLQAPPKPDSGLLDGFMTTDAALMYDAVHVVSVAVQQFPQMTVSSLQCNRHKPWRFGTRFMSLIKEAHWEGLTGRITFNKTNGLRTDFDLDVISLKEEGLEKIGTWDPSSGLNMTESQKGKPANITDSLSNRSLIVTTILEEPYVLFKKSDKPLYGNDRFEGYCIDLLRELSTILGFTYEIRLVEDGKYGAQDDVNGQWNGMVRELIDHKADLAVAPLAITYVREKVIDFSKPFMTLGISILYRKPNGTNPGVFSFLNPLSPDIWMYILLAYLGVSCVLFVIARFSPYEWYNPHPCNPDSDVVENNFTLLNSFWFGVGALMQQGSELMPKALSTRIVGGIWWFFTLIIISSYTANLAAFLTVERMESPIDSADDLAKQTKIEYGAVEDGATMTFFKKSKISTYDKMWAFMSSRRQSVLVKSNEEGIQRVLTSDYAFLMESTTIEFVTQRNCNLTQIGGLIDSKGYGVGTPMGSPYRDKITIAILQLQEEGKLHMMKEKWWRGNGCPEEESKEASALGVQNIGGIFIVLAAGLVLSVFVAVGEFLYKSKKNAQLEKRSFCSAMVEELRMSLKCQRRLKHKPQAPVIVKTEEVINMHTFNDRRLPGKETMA", "T1 sequence (Q8BMF5 21-956)": "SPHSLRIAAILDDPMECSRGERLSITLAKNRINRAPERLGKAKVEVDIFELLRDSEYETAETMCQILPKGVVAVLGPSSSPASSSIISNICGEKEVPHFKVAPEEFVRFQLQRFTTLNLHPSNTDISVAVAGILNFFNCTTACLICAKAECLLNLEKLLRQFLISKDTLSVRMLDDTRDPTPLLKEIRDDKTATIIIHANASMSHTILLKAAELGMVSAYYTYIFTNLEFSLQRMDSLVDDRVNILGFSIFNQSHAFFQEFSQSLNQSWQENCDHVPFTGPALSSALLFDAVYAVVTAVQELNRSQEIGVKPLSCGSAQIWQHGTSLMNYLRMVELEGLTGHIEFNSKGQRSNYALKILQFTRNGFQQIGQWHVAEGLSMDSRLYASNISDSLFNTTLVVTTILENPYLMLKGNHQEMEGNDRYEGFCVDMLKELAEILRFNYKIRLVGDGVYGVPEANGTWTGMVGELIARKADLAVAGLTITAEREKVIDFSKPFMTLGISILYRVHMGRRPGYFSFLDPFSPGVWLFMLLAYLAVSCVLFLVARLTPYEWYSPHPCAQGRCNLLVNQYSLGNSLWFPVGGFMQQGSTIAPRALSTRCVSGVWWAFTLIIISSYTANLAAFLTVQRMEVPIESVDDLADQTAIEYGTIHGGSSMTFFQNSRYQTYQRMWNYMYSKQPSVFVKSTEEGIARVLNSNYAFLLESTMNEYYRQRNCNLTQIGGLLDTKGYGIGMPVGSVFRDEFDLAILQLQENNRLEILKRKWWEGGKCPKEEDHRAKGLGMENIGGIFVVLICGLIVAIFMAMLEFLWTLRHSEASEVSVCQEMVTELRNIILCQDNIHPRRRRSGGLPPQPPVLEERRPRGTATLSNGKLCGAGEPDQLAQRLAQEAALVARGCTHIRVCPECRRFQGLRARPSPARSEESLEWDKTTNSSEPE", "T1 sequence (Q61626 15-979)": "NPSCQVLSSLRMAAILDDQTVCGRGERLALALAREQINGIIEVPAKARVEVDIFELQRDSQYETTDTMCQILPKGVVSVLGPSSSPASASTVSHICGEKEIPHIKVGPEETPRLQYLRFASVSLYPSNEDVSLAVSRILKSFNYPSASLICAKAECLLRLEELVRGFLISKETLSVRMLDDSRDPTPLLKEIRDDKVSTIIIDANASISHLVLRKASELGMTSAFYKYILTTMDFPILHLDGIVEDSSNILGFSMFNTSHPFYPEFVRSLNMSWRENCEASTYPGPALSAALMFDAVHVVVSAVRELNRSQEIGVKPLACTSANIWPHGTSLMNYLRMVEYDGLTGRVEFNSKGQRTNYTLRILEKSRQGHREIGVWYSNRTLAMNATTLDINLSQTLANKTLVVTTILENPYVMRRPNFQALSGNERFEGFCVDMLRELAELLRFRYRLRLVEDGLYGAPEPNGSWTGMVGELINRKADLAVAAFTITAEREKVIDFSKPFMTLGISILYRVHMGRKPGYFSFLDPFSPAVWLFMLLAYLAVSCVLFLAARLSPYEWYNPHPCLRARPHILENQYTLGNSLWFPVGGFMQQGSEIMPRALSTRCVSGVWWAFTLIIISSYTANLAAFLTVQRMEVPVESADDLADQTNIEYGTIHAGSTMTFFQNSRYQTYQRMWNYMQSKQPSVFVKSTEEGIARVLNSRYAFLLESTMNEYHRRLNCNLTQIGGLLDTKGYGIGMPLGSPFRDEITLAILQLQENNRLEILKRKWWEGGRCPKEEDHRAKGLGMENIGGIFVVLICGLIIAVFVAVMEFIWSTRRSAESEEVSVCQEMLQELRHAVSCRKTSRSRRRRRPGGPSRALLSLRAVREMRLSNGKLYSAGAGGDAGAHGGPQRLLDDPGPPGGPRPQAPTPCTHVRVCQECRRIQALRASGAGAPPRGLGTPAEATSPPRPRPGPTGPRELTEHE", "experiment": "Kainate receptor EPSCs at mossy fiber-CA3 synapses, acute hippocampal slices", "type": "cell-based", "details": "20 μM", "experimental": "For recordings from acute hippocampal slices, brains from P15-21 C57Bl/6 mice were sliced transversely (350 μm thickness) in a sucrose slicing solution containing (in mM) 85 NACl, 2.5 KCl, 1.25 NaH2PO4, 25 NaHCO3, 25 glucose, 75 sucrose, 0.5 CaCl2, 4 MgCl2, 0.5 Na ascorbate, 10 μM DL-APV and 100 μM kynurenic acid (pH 7.3). After slicing, the solution was exchanged with an incubation solution containing (in mM) 125 NaCl, 2.4 KCl, 1.2 NaH2PO4, 25 NaHCO3, 25 glucose: 1 CaCl2, 2 MgCl2, 0.5 Na ascorbate, 10 μM DL-APV and 100 μM kynurenic acid (pH 7.3) that was bubbled continuously with CO2-balanced O2 (carbogen). […] Recordings in voltage clamp mode used the CsF/CsCl internal solution and carbogenated external recording solution containing (in mM) 120 NaCl, 2.4 KCl, 2 MgCl2, 1 CaCl2, 25 NaHCO3, 1.2 NaH2PO4, 25 glucose, 10 μM bicuculline methiodide, 50 μM PTX and 50 μM D-APV (pH 7.3). […] NMDA EPSCs were validated by addition of D-APV (50 μM) at the end of each recording. […] IKM compounds were applied for 10 minutes and changes in the peak amplitudes of excitatory post-synaptic currents (EPSCs) and paired-pulse ratios were analyzed during the last two minutes of drug application. EPSC charge transfer, AP frequency, paired-pulse ratio and EPSC peak amplitude were analyzed with Mini-Analysis v6.03 (Synaptosoft, Decatur, Ga.) and Clampfit v10.0 (MDS, Sunnyvale, Calif.) software."}, "[3]": {"test_system": "NMDA receptor-mediated EPSCs, CA1 pyramidal cells", "experiment": "NMDA receptor EPSCs at Schaffer collateral-CA1 synapses, acute hippocampal slices", "type": "cell-based, mouse", "details": "20 μM; 5 min treatment", "experimental": "For recordings from acute hippocampal slices, brains from P15-21 C57Bl/6 mice were sliced transversely (350 μm thickness) in a sucrose slicing solution containing (in mM) 85 NACl, 2.5 KCl, 1.25 NaH2PO4, 25 NaHCO3, 25 glucose, 75 sucrose, 0.5 CaCl2, 4 MgCl2, 0.5 Na ascorbate, 10 μM DL-APV and 100 μM kynurenic acid (pH 7.3). After slicing, the solution was exchanged with an incubation solution containing (in mM) 125 NaCl, 2.4 KCl, 1.2 NaH2PO4, 25 NaHCO3, 25 glucose: 1 CaCl2, 2 MgCl2, 0.5 Na ascorbate, 10 μM DL-APV and 100 μM kynurenic acid (pH 7.3) that was bubbled continuously with CO2-balanced O2 (carbogen). […] Recordings in voltage clamp mode used the CsF/CsCl internal solution and carbogenated external recording solution containing (in mM) 120 NaCl, 2.4 KCl, 2 MgCl2, 1 CaCl2, 25 NaHCO3, 1.2 NaH2PO4, 25 glucose, 10 μM bicuculline methiodide, 50 μM PTX and 50 μM D-APV (pH 7.3). […] NMDA EPSCs were validated by addition of D-APV (50 μM) at the end of each recording. Hippocampal CA1 or CA3 pyramidal cells were voltage clamped at −70 mV and stimulated with a monopolar electrode either the stratum radiatum or stratum lucidum, respectively. […] EPSC charge transfer, AP frequency, paired-pulse ratio and EPSC peak amplitude were analyzed with Mini-Analysis v6.03 (Synaptosoft, Decatur, Ga.) and Clampfit v10.0 (MDS, Sunnyvale, Calif.) software."}},
  "note": "Entries after “also recorded” stand apart in the source; their conditions may differ.",
  "data": [
    {"compound": "O=C(O)C[C@@]12O[C@H]3C=CCN[C@H]3C1CN[C@H]2C(=O)O", "note": "(stereo partly shown) [IKM-159]", "values": [
      {"measurement": "persistence of reduction in action potential firing frequency after removal of compound", "setting": "[1]", "result": "prolonged"},
      {"measurement": "action potential firing frequency in presence of compound", "setting": "[1]; basal (spontaneous) firing", "result": "0.5±0.04", "unit": "Hz"},
      {"measurement": "effect on kainate receptor EPSC peak amplitude", "setting": "[2]", "result": "did not alter the mean amplitude; also recorded: did not alter the typical run-down in amplitude"},
      {"measurement": "NMDA receptor-mediated EPSC amplitude, % of control amplitudes", "setting": "[3]", "result": "99±3", "unit": "%"}
    ]}
  ]
}
